From US11249071B2, “Reactivation of x chromosome genes” (CALIFORNIA INSTITUTE OF TECHNOLOGY, priority 2015, dated 2022)
Entries after “also recorded” stand apart in the source; their conditions may differ.

Tested on: MLF cells having silenced X genes
Experiment: X-chromosome reactivation assay (single molecule RNA FISH) in MLF cells treated with inhibitors
Assay type: cell-based
Details: mouse MLF cells, HDAC3 inhibitor alone (Scriptaid 100 nM), 48 hours, FIGS. 7A-7B
Experimental: 5,000 Mouse MLF cells were plated on a poly-D-lysine (Sigma) and 0.2% gelatin (Sigma)-coated #1.5 coverslip placed into wells of a 24-well plate containing HEK media (DMEM, 10% Gemini Benchmark FBS, 1×L-glutamine, 1× sodium pyruvate, 1×NEAA, 1× Pen/Strep; Life Technologies unless otherwise indicated). After 16 hours, inhibitors were added into the media and incubated the cells for 48 hours. The inhibitors and the concentration used were: 5-Azacytidine (6 μM; Sigma, A2385), 5-Aza-2′-deoxycytidine ([…]; Sigma, A3656), RG 108 (200 μM; Abcam, ab141013), Trichostatin A (5 μM; Sigma, T8552), and Scriptaid (100 nM; Sigma, S7817).
Coverslips from siRNA transfection or inhibitor treatment were fixed in Histochoice (Sigma) for 10 min, washed thoroughly in PBS, and dehydrated in ethanol for storage until FISH staining. Single molecule RNA Fluorescence in situ hybridization (FISH) experiments were done using QuantiGene ViewRNA ISH Cell Assay (Affymetrix) and QuantiGene ViewRNA ISH Cell 740 Module (Affymetrix) according to manufacturer's protocol. […]
Cells were stained for target mRNAs and siRNA-targeted mRNA by FISH and imaged. Images were then analyzed using Matlab R2013b (described below). […] Within these cells, the copy number of target mRNAs were quantified using a peak finding method (described below) and compared across conditions. The mRNA levels were quantified for 50 individual cells. […]

## O=C(CCCCCN1C(=O)c2cccc3cccc(c23)C1=O)NO [Scriptaid]
  expression / reactivation of the Xist-dependent silenced Gpc4 gene, measured by levels of Gpc4 mRNA: resulting in expression of Gpc4; also recorded: resulting in the reactivation of the Xist-dependent silent Gpc4 gene
